Assay results from ChEMBL document CHEMBL1137273, “Xanthine mimetics as potent dipeptidyl peptidase IV inhibitors” (Bioorg Med Chem Lett, 2006).

What was measured:
Dipeptidyl peptidase 4 [1] = target: T1, Dipeptidyl peptidase 4 (Homo sapiens, UniProt P27487); assay: Inhibition of h-DPPIV
Prolyl endopeptidase = target: T2, Prolyl endopeptidase (Homo sapiens, UniProt P48147); assay: Inhibition of h-POP
T2 sequence (P48147 whole entry): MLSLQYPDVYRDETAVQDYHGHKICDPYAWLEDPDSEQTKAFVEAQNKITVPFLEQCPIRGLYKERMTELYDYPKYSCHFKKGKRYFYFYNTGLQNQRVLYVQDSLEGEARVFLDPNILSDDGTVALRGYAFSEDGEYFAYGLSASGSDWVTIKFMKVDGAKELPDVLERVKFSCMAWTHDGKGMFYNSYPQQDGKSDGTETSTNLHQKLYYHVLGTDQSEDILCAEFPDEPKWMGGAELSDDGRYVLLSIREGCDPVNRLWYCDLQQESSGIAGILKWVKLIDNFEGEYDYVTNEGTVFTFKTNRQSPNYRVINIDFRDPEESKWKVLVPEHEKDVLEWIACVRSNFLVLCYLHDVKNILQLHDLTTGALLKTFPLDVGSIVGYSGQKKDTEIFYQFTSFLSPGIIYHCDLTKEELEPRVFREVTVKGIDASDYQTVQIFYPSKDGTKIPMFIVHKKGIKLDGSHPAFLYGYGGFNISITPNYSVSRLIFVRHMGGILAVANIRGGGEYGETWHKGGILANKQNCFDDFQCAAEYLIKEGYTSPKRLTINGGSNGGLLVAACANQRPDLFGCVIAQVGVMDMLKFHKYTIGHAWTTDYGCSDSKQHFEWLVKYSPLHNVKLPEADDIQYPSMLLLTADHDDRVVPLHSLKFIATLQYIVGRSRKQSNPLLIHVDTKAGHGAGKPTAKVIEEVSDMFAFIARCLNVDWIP

Dipeptidyl peptidase 8 = Dipeptidyl peptidase 8 (Homo sapiens, UniProt Q6V1X1); assay: Inhibition of h-DPP8
Dipeptidyl peptidase 4 [2] = target: T1, Dipeptidyl peptidase 4; assay: Human DPPIV plasma binding (0% plasma); format: cell-free
Dipeptidyl peptidase 9 = Dipeptidyl peptidase 9 (Homo sapiens, UniProt Q86TI2); assay: Inhibition of h-DPP9
Sequence of Dipeptidyl peptidase 9 (Q86TI2 whole entry): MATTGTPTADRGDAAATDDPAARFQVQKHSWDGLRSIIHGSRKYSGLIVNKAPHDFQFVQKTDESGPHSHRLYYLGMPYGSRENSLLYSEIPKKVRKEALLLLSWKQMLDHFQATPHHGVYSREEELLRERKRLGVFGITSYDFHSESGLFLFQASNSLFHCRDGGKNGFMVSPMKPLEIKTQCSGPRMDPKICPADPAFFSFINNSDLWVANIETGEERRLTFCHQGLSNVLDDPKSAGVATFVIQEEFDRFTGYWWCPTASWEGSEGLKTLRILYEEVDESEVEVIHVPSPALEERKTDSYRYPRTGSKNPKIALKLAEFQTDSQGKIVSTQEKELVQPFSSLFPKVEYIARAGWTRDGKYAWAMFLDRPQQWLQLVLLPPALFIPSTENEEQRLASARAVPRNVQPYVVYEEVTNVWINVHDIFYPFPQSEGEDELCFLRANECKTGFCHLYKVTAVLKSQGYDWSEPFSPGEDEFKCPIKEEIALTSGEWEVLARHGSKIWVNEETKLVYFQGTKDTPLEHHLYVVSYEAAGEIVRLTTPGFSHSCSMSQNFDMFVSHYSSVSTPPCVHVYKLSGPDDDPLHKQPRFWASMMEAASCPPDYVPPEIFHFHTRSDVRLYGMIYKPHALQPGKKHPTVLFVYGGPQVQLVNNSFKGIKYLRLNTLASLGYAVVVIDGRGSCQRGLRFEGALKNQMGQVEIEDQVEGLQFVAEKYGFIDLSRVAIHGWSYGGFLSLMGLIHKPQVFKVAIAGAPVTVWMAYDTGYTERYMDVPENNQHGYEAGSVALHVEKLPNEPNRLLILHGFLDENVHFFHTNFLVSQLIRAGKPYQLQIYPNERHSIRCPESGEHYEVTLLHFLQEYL

Sequence of Dipeptidyl peptidase 8 (Q6V1X1 whole entry): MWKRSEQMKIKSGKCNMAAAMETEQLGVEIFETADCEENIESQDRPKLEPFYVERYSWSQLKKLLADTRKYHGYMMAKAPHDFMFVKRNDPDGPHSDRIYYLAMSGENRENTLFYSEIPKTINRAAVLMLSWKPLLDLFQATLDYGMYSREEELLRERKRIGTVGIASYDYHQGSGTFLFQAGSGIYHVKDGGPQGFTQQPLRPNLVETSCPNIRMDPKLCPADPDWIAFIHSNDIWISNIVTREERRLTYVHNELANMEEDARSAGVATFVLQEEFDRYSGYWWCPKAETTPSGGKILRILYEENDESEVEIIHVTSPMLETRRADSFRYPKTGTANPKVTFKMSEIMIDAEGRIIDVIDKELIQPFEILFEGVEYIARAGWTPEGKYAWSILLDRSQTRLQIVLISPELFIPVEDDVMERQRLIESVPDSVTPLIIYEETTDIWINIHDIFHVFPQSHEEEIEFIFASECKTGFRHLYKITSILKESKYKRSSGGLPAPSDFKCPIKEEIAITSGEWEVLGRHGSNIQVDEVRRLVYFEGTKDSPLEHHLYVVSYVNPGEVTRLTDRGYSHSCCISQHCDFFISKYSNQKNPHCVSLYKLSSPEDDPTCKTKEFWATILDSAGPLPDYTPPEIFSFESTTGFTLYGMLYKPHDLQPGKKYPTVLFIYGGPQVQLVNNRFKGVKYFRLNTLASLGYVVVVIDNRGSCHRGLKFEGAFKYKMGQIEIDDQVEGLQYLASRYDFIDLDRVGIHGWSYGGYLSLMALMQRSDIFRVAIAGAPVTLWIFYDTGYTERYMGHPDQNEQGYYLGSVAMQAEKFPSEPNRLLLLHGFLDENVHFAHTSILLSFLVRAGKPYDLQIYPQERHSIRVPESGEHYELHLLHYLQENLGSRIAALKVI
T1 sequence (P27487 whole entry): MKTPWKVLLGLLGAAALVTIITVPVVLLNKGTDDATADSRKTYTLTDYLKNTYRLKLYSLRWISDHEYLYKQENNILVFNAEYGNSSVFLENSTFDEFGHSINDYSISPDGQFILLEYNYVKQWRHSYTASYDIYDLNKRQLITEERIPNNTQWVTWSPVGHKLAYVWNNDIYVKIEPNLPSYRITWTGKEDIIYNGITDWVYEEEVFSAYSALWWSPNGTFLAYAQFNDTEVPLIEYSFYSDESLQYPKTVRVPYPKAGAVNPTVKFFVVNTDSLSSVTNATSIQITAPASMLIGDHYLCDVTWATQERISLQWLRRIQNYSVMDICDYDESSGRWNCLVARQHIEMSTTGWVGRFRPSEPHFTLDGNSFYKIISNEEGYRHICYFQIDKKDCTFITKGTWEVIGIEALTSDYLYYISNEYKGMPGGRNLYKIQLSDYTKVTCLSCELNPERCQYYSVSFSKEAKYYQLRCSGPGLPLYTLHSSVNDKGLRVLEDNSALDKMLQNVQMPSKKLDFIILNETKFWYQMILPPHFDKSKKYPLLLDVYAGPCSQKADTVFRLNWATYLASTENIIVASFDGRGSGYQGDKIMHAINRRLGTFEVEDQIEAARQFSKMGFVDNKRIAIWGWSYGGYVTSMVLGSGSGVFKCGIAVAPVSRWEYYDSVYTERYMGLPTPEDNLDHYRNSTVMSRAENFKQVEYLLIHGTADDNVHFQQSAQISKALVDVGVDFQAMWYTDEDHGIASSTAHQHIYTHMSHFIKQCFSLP

SMILES | Ki (Dipeptidyl peptidase 4 [1]) [nM] | Ki (Prolyl endopeptidase) [nM] | Ki (Dipeptidyl peptidase 8) [nM] | Ki (Dipeptidyl peptidase 4 [2]) [nM] | Ki (Dipeptidyl peptidase 9) [nM] | IC50 (Dipeptidyl peptidase 4 [1]) [nM]
Cn1ncc2c(nc(N3CCCC(N)C3)n2Cc2ccccc2C#N)c1=O (stereo not drawn) | 260 |  |  |  |  | 
Cn1ncc2nc(N3CCCC(N)C3)n(Cc3cccc(CC#N)c3)c2c1=O (stereo not drawn) | 11 | > 30000 | > 3000 |  |  | 
Cn1c(=O)c2nc(N3CCCC(N)C3)n(Cc3ccccc3C#N)c2c(=O)n1C (stereo not drawn) |  | > 30000 |  |  |  | 
Cn1c(=O)c2c(nc(N3CCCC(N)C3)n2Cc2ccccc2C#N)n(C)c1=O (stereo not drawn) | 2 | > 30000 | > 30000 | 2 |  | 
CN1C(=O)c2nc(N3CCCC(N)C3)n(Cc3ccccc3C#N)c2C1=O (stereo not drawn) |  | > 30000 |  |  | > 3000 | 
NC1CCCN(c2nc3c(n2Cc2ccccc2C(F)(F)F)C(=O)c2ccccc2C3=O)C1 (stereo not drawn) | 25 |  | > 30000 |  | > 3000 | 
Cn1ncc2nc(N3CCCC(N)C3)n(Cc3ccccc3C#N)c2c1=O (stereo not drawn) | 5 | > 30000 | > 3000 |  |  | 
CN1C(=O)C=C(N2CCC[C@@H](N)C2)C(Cc2ccccc2C#N)C1=O (stereo partly drawn) |  |  |  |  |  | 4
